Test results: US20250382631A1, “PROTAC-CID SYSTEMS FOR USE IN MULTIPLEX GENE REGULATION” (William Marsh Rice University, priority 2022, published 2025)
Read-outs that look alike come from different tables or passages of the source.

Tests used:
[1] = PROTAC-CID inducible EYFP gene activation, flow cytometry; format: cell-based, human; conditions: Homo sapiens, HEK-293T, FIG. 13A
Experimental: (§1) Fluorescence assay using flow cytometry analysis. Cells were treated with 0.05% Trpsin EDTA (Thermo Fisher Scientific no. 25300054) or TrypLE (Thermo Fisher Scientific no. 12605028) after transfection and centrifuged at 3000 g for 5 min. Supernatant was removed and the cell pellet was resuspended with 200 μL phosphate buffered saline (PBS) without calcium and magnesium (Thermo Fisher Scientific no. 10010023). Cells were transferred into 12×75 mm flow tubes (Global Scientific no. 110410). Cells were analyzed by MA900 flow cytometry (SONY). 405 nm laser (FL6 filter) was used for testing the BFP channel. 488 nm (FL1 filter) was used for testing the EYFP and GFP channel. Automated alignment using Automatic Setup Beads kit (SONY no. LE-B3001) is performed before running samples. In FIGS. 3A, 3B, and 17, experiments were performed under 2% FSC, 17% BSC, 24% FL1. In FIG. 18, experiments were performed under 2% FSC, 17% BSC, 27% FL1. All the other experiments were performed under 2% FSC, 17% BSC, 24% FL1 and 27% FL6. Flow cytometry data was processed and analyzed by FlowJo 10. Events were first gated with forward scatter-Area (FSC-A) and side scatter-Area (SSC-A) to select viable cells and remove the debris and dead cells. Cells were further gated with FSC-A and FSC-Height (FSC-H) for selecting single cells. The mean intensity of the reporter fluorescent protein (BFP and EYFP) in viable and single cell populations were calculated by FlowJo 10 as the mean of FL6-A and FL1-A. When calculating the fold change of relative fluorescence units (RFU), the relative fluorescence units of EYFP was calculated by dividing the mean of fluorescence intensity of EYFP with the mean of BFP fluorescence intensity for normalization as the following formula: […]
(§2) Next, the mean of the normalized relative fluorescence units of induced group were divided by the value of control group for calculating the fold change as the following formula: […]
(§3) Transfection and microscopy. HEK293T cells (American Type Culture Collection, no. CRL-3216) were cultured with high-glucose Dulbecco's modified Eagle's medium (DMEM) (Thermo Fisher Scientific no. 10569044) with 10% fetal bovine serum (FBS) (Thermo Fisher Scientific no. 10437028) and 1×penicillin-streptomycin (Thermo Fisher Scientific no. 15140122) at 37° C. with 5% CO2. Except for the data in FIGS. 3C, 3E, and 3H, cells were plated into 96 well plate (Corning no. 3598) and transfected by Polyethyleneimine Max (PEI Max) (Polysciences no. 24765-1). 1.5 μL PEI Max (1 mg/mL, pH=7.1) and 100 μl DMEM were mixed with plasmids to be slowly dropped into the cell medium after 30 mins of incubation. Medium was changed 12 hours post-transfection. The inductive small molecules, including Rapamycin (STEM CELL technologies no. 73362), dTAG-13 (TOCRIS no. 6605/5), dTAG^V-1 (TOCRIS no. 6744-5), dBRD9 (TOCRIS no. 6606/5), dTRIM24 (TOCRIS no. 6607/5), MZ1 (TOCRIS no. 6154/5), AT1 (TOCRIS no. 6356/5), TL13-12 (TOCRIS no. 6744/5), TL13-112 (TOCRIS no. 6745/5), dTAG-7 (TOCRIS no. 69125), ZXH3-26 (TOCRIS no. 6713/5) and ABA (GoldBio no. A-050-100), dissolved in Dimethyl sulfoxide (DMSO) (Sigma, no. D8418) were added. For the microscopy observation, the images were taken by Microscopy EVOS (Life Technologies) and processed by ImageJ (Schneider et al., 2012). If not otherwise noted, 60 ng of each plasmid were used for each sample.
(§4) Step-by-step fluorescence protein activation assay protocol. Reagents: • 1. PEI Max (Polysciences no. 24765-1) • 2. DMEM, high glucose, GlutaMAX™ Supplement, pyruvate (Thermo Fisher Scientific no. 10569044) • 3. Penicillin-Streptomycin (10,000 U/mL) (Thermo Fisher Scientific no. 15140122) • 4. Fetal Bovine Serum 500ML (FBS) (Thermo Fisher Scientific no. 10437028) • 5. TrypLE™ Express Enzyme (1×), phenol red (Thermo Fisher Scientific no. 12605068) • 6. PBS pH=7.4 (Thermo Fisher Scientific no. 10010023) • 7. Sony sorting chip […] for MA900 (SONY no. LE-C3210) • 8. Automatic Setup Beads kit (SONY no. LE-B3001) • 9. […]

[2] = tested on: pUAS-1-driven EYFP expression in HEK293T cells transfected with GAL4- and VPR-fused PROTAC target protein / E3 ubiquitin ligase; assay: as above; format: cell-based, human; conditions: for Bottom (best-fit value) / Span (best-fit value) / Top (best-fit value): Table 4 nonlinear regression of EYFP activation; for Bottom (best-fit value) / Span (best-fit value) / Top (best-fit value) / Hillslope (best-fit value) / logEC50 (best-fit value) / EC50: FIG. 13A
Experimental: as §1, §2, §3, §4

[3] = tested on: isABE system (FRB / FKBP3 fused split ABE8e), EYFP reporter in HEK293T cells; assay: isABE split adenine base editor, EYFP stop-codon reporter dose response; format: cell-based; conditions: Homo sapiens, HEK-293T; different doses of Rapamycin, FIG. 5J
Description: For rapid exploration of inducible ABE variants, the inventors first sought to develop a rapid fluorescence-based reporter system to quantify the ABE efficiency as reported before. The inventors selected target region in eyfp gene with NGG PAM where a CAG codon within the editing window was mutated to TAG stop codon. ABEs convert A to G or T to C, thus allowing the conversion of stop codon to CAG following gRNA binding to untemplated strand. Additionally, there is no other bystander A in the editing window that would cause complex editing to affect the fluorescence expression. The inventors observed a high restoration of the EYFP fluorescence when transfecting HEK293T cells with plasmids encoding the ABE8e fused SpCas9 and guide RNA (FIGS. 5A and 5B). Next, the target range of base editors was restricted by the PAM where the prototypical SpCas9 recognizing target sites with NGG PAM (where N is A, C, G or T). A variant named SpG was identified with an expanded set of NGN PAM. […]
To develop a split adenosine base editor system, the inventors identified two potential split regions based on the crystal structure of ABE8e base editor in complex with guide RNA and target DNA. […] In addition, moderate levels of eYFP signal were detected in both sites. […]

[4] = tested on: EYFP and BFP expression in HEK293T cells; assay: Dual PROTAC-based inducible gene cassettes (EYFP and BFP), microscopy; format: cell-based, human; conditions: GAL4-FKBP12^F36V + VHL-VPR driving EYFP; TetR-BRD9BD + CRBN-VPR driving BFP; 1 μM, FIG. 2B
Experimental: as §3
The inventors next tested the feasibility of dual PROTAC-based inducible gene cassettes (FIG. 15). In the first cassette, GAL4 was fused with FKBP12^F36V, and VHL was ligated with VPR to drive EYFP expression in response to dTAG^V-1. In the second cassette, TetR was fused with BRD9BD, and CRBN was connected with VPR to drive blue fluorescence protein (BFP) expression in the presence of dBRD9. […] As biological computation relies on the protein or DNA to execute Boolean logic gate operation in living organisms for cell discrimination and disease diagnosis (3, 11, 42), the inventors next explored the possibility of PROTAC-CID enabled logic gate biological computation. By placing EYFP under control of the TRE (Tetracycline response element) and pUAS-1 promoter, the inventors observed strong EYFP expression by using one or two PROTACs, achieving clear logic OR gate responses (FIGS. 2C and 16B). To develop a more sophisticated logic AND gate, the inventors took advantage of two orthogonal site-specific DNA recombinases (Cre and Dre) for biological computation (43). […] In this gene circuit, only in the presence of both dTAG-13 and dBRD9 inducers, Dre and Cre can be expressed to remove their respective “STOP” signals, resulting in the eventual GFP expression as a clear logic AND readout (FIGS. 2D and 16C).

[5] = tested on: Cre-mediated GFP expression in HEK293T cells; assay: Inducible Cre site-specific DNA recombination, LoxP-STOP-LoxP-GFP reporter; format: cell-based, human; conditions: 100 nM dTAG-13 or 1 μM dBRD9, 2 days, FIGS. 3A and 17
Experimental: as §1
Transfection and microscopy. […]

wild-type FKBP12 = wild-type FKBP12 (Homo sapiens, UniProt P62942); conditions: refs (32, 36); cited from earlier work
Sequence of wild-type FKBP12 (P62942 whole entry, species assumed, the tested form may be a part): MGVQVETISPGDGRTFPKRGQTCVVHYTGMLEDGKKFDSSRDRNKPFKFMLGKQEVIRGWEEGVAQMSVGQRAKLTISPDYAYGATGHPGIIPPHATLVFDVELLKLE

GAL4-FKBP12 = GAL4-FKBP12 (UniProt P04386); assay: cell-based or functional assay
PYL-VPR = PYL-VPR (UniProt Q8VZS8); assay: cell-based or functional assay
Sequence of PYL-VPR (Q8VZS8 33-209): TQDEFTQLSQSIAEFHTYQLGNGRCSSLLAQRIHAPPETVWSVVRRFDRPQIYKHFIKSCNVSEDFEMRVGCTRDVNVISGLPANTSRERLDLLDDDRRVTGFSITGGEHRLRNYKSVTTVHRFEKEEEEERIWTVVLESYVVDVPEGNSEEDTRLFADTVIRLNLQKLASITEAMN

BRD4^BD2-VPR (human) = assay: cell-based or functional assay
TRIM24^BD-VPR (human) = assay: cell-based or functional assay
[6] = Table 4 nonlinear regression, Prism 9 [Agonist] vs. response variable slope (four parameters), no unit in table (the source gives nM), read-out: EC50 (best-fit value)
[7] = dose-response, read-out: EC50 for gene activation

CO[C@H]1C[C@@H]2CC[C@@H](C)[C@@](O)(O2)C(=O)C(=O)N2CCCC[C@H]2C(=O)O[C@H]([C@H](C)C[C@@H]2CC[C@@H](O)[C@H](OC)C2)CC(=O)[C@H](C)/C=C(\C)[C@@H](O)[C@@H](OC)C(=O)[C@H](C)C[C@H](C)/C=C/C=C/C=C/1C [Rapamycin]
EC50 [1, 6]: 6.32 nM
EC50 [1, 7]: 6 nM
Bottom (best-fit value) [2]: 6.692
Span (best-fit value) [2]: 483.9
Top (best-fit value) [2]: 490.6
Hillslope (best-fit value) ([2]; Table 4 nonlinear regression): 1.871
logEC50 (best-fit value) ([2]; Table 4 nonlinear regression): 0.8008
rapamycin-based gene activation (EYFP) ([2]; using FRB and FKBP12, FIG. 1B): 355 fold
EC50 [3]: 1.8 nM

COc1cc(-c2cn(C)c(=O)c3cnccc23)cc(OC)c1CN(C)CC(=O)NCCOCCOCCNc1cccc2c1C(=O)N(C1CCC(=O)NC1=O)C2=O (stereo not shown) [dBRD9]
EYFP / BFP expression from dual inducible cassettes [4]: expression only in the presence of its corresponding inducer
GFP signal, two-layer genetic circuit driving Cre [5]: strong GFP signal

CC[C@H](C(=O)N1CCCC[C@H]1C(=O)O[C@H](CCc1ccc(OC)c(OC)c1)c1ccccc1OCC(=O)NCCCCCCC(=O)N[C@H](C(=O)N1C[C@H](O)C[C@H]1C(=O)N[C@@H](C)c1ccc(-c2scnc2C)cc1)C(C)(C)C)c1cc(OC)c(OC)c(OC)c1 [dTAG^V-1]
Bottom (best-fit value) [2]: 0.9420
Span (best-fit value) [2]: 55.73
Top (best-fit value) [2]: 56.67
Hillslope (best-fit value) ([2]; Table 4 nonlinear regression): 1.937
logEC50 (best-fit value) ([2]; Table 4 nonlinear regression): 2.358
EC50 [2, 6]: 228 nM
EC50 [2, 7]: 228 nM
EYFP / BFP expression from dual inducible cassettes [4]: expression only in the presence of its corresponding inducer
degradation of wild-type FKBP12 (wild-type FKBP12): do not degrade wild-type FKBP12

FRB-VPR (from UniProt P42345 2021-2113)
EC50 of the inducer Rapamycin for EYFP gene activation (dose-response, FIG. 13A) (GAL4-FKBP12): 6.32 nM
fold EYFP gene activation with rapamycin (GAL4-FKBP12): 355 fold

GAL4-ABI (from UniProt P04386 1-147; P49597 126-423)
EC50 of the inducer ABA for EYFP gene activation (dose-response, FIG. 13A) (PYL-VPR): 763 nM

GAL4-VHL fusion protein
EC50 of the inducer MZ1 for EYFP gene activation (dose-response, FIG. 13A) (BRD4^BD2-VPR (human)): 32.4 nM
EC50 of the inducer dTRIM24 for EYFP gene activation (dose-response, FIG. 13A) (TRIM24^BD-VPR (human)): 6350 nM
